The values that follow come from patent US20030237103A1, “Methods and compositions for pharmacological and toxicological evaluation of test agents” (priority 2002, published 2003).

Where two headings read alike, the source gives them in different places. A value given as a limit tells only on which side of the number the result lay.

For data set [1], the system named is Panel, CD-IGS and parental rat strains. The experiment in a line: Kidney histology of gentamicin- and vehicle-treated rats. The text has this: Arrows point to regions of the proximal tabules damage scored as follows: 0=no damage, 1=25% injured tubules, 2=50% injured tubules and protein casts in lumens, 3=severe injury of >50% of tubules, 4=nearly complete necrosis of all tubules. Representative histological samples from the outbred Sprague Dawley rat CD-IGS (Panel B) and the four inbred parental strains Brown Norway, Fischer 344, Lewis and Wistar Kyoto rats (Panel C) are also shown.
We sought to maximize the range of genetic susceptibility to the adverse drug effects across the strains.

For data set [2], the system named is Sprague Dawley, LEW and F344 rats. The conditions noted are these: cited from earlier work.

On to gentamicin, for which the “damage to proximal tubules” value in data set [1] (F1 hybrids except WKYxBN) is given as ≥ 50%. Also, the “kidney damage by histology” value in data set [1] (LEW×F344 F1 rats, 240 mg/Kg/day) is recorded as “nearly complete necrosis of all proximal tubules”. Also, the “effect on the kidney” value in data set [1] (WKY rats) is recorded as “virtually no effect”. Further, the injured tubules in data set [1] (WKY rats, both vehicle and gentamicin treated) was 25%. The “renal damage by histology” value in data set [1] (WKYxBN F1 strain) is listed as “little renal damage”. Besides, the tubules damaged result in data set [1] (gentamicin-treated parental strains except WKY) is recorded as “greater than 50%”. The “susceptibility to nephrotoxic effects” value in data set [2] (F344 compared with SD) was “more susceptible”. Moreover, the “nephrotoxic effects (protein in the urine)” value in data set [2] (LEW strain) was “sensitive”; in data set [2] (Sprague Dawley rats), “resistant”.
